The values below come from patent US6022859A, “Inhibitors of β-amyloid toxicity” (Wisconsin Alumni Research Foundation, priority 1997, dated 2000).

Where a SMILES comes first, the peptide text is derived from it. Where no end group is shown, it is not given here. [ ]: non-standard residue; d: D form. Ahx = NCCCCCC(=O)O

Series [1] is described as follows: Solubility of test peptides (Table 1; PBSA). Conditions: for Soluble: Table 1.
Description: (§4) The solubility and aggregation properties of the test peptides were assessed by visual observation, analytical ultracentrifugation, and/or dynamic light scattering.
The test system of series [2] is Aβ. Conditions: literature, cited from earlier work.
Series [3] has as its system Aβ toxicity. The settings on record: literature; cited from earlier work.
Series [4] concerns PC-12 cells. The experiment in a line: Cellular toxicity (MTT assay): protection from Aβ(1-39) toxicity. The series is classed as cell-based. The settings on record: both molar ratios tested (2:1 and 1:1). As for the experimental part:
(§1) Solutions of recognition or hybrid peptides were prepared by direct dissolution of lyophilized peptide into sterile PBS (with antibiotics). Aβ(1-39) was dissolved in 0.1% TFA at 10 mg/ml, then diluted twenty-fold into sterile PBS (with antibiotics) or PBS containing the hybrid or recognition peptides. Solutions were prepared at 2:1 or 1:1 peptide:Aβ molar ratio. The samples were incubated at room temperature for 7 days, then diluted five-fold with medium and incubated for one day. As a control, PBS was diluted 5:1 with medium and added to some wells.
Freshly-prepared solutions of Aβ(1-39) were not toxic to the cells, consistent with other reports in the literature (Shearman, et al., supra). None of the test peptides alone were toxic. […] FIG. 4 graphs the effect of recognition and hybrid peptides on Aβ toxicity. Aβ(0.5 mg/ml) was incubated with the recognition peptide at a 1:2 Aβ:peptide molar ratio (A), or with the hybrid peptides at a 1:1 or 1:2 Aβ:peptide molar ratio (B), for one week, following which the solution was diluted five-fold and added to monolayer cultures of PC-12 cells. Cell viability was assessed with the MTT assay; results are reported relative to untreated wells. […] The ability of each peptide to protect cells from Aβ toxicity was assessed by a upper-tailed t-test; *, p<0.01; **, p<0.001.
(In general: Tetrazolium assays rely on reduction of a dye to a coloured formazan, in cell work by metabolically active cells.)

In series [5] the target is T1, Aβ(1-39) (Homo sapiens, UniProt P05067).
T1 construct: A peptide homologous to the first 39 residues of Aβ, Aβ(1-39), was purchased from AnaSpec, Inc; purchased AnaSpec, Inc. (San Jose, Calif.)
The experiment in a line: Dynamic light scattering, Aβ(1-39) aggregation kinetics. The series is classed as biochemical. Conditions: Aβ 0.5 mg/ml, peptide:Aβ molar ratio 2:1. As for the experimental part:
Lyophilized Aβ(1-39) was solubilized in 0.1% TFA at 10 mg/ml, then diluted twenty-fold into PBSA or into PBSA containing the test peptide. PBSA was double-filtered through a 0.22 μm filter prior to use. pH was adjusted to 7.4 with 0.5 N NaOH, then the sample was immediately filtered through a 0.45 μm filter directly into a clean light scattering cuvette. In all cases Aβ(1-39) concentration was 0.5 mg/ml and the molar ratio of test peptide to Aβ was 2:1 unless otherwise indicated. Autocorrelation functions at 90° scattering angle were collected as described previously (Shen, et al., 1994, supra). Data were fit using the method of cumulants to derive and apparent hydrodynamic radius.
The effect of the test peptides on aggregation kinetics of Aβ(1-39) was assessed by dynamic light scattering (FIG. 1). FIG. 1 graphs the effect of recognition and hybrid peptides on Aβ aggregation kinetics. Final Aβ concentration was 0.5 mg/ml, Aβ:peptide molar ratio was 1:2 except where indicated. The hydrodynamic radius (measured at a 90° scattering angle) was measured as a function of time.

In series [6] the target is T1, Aβ(1-39). Kind of series: Static light scattering, Aβ(1-39) aggregate molecular weight and morphology (Kratky plot). The class given is biochemical. The settings on record: peptide:Aβ 2:1 (16-20-K6 1:2). As for the experimental part: Solutions of Aβ(1-39) alone or with test peptide at a 2:1 peptide:Aβ molar ratio were prepared as described above. Solutions were incubated at room temperature for 24 hours, after which scattered intensity data as a function of angle were collected and analyzed as described elsewhere (Shen, C.-L. and Murphy, Biophys. J., 1995, supra).
The effect of the test peptide on aggregate size and morphology was probed with static light scattering. […] Thus, the average molecular weight of Aβ(1-39) aggregates was not dramatically affected by any of the peptides tested.
A convenient tool for abstracting particle shape information from angular dependence data is the so-called Kratky plot. FIGS. 2A and B are Kratky plots of Aβ-peptide solutions. Aβ(1-39) was co-incubated with recognition (A) or hybrid (B) peptides for 24 hours, after which SLS data were collected, analyzed, and plotted as Kratky plots. In all cases, Aβ(1-39) concentration was 0.5 mg/ml and the peptide:Aβ molar ratio was 2:1, except for 16-20-K6 for which the molar ratio was lowered to 1:2. In FIG. 2, q is the scattering vector, which is related to the scattering angle, R is the Rayleigh ratio, a function of the scattering intensity, c is the concentration, and K is an instrument constant. Referring to FIG. 2A, the rising curves with an intermediate plateau are characteristic of semiflexible linear chains. […]

Series [7] addresses T2, Aβ(25-35) (Homo sapiens, UniProt P05067).
T2 construct: A peptide homologous to the 25-35 residues of Aβ, Aβ(25-35), was purchased from Sigma; purchased Sigma (St. Louis, Mo.)
Kind of series: ThT fluorescence spectroscopy with Aβ(25-35). The class given is biochemical. Conditions: mixed with Aβ(25-35).

Series [8] concerns PC-12 cells. The experiment in a line: Cellular toxicity (MTT assay): effect on Aβ(25-35) toxicity. The class given is cell-based. Conditions: co-incubation with Aβ(25-35). As for the experimental part: as §1
15-25-K6 shares essentially no homology with Aβ(25-35), which also forms fibrillar aggregates and is toxic to cells. Aβ(25-35) decreased MTT reduction to 45% of controls; co-incubation of 15-25-K6 with Aβ(25-35) had no effect on the toxicity of Aβ(25-35).

Series [9] addresses T1, Aβ(1-39). Kind of series: ThT fluorescence spectroscopy with Aβ(1-39). The class given is biochemical. The settings on record: one week incubation at room temperature. As for the experimental part:
A few samples used for cellular toxicity assays were tested for ThT fluorescence after one week aging and prior to dilution into cell culture medium. ThT (Sigma, St. Louis, Mo.) was dissolved at 100 μM in PBSA. Forty μl peptide solution and 40 μl ThT stock solution were mixed with 920 μl PBSA and briefly vortexed. Fluorescence emission spectra were taken using a Model M-3 Alphascan (Photon Technology International, South Brunswick, N.J.) spectrofluorimeter, with excitation at 450 nm. An increase in fluorescence with a maximum at 482 nm is indicative of amyloid (LeVine, H. Protein Sci. 2:404-410, 1993). Fluorescence intensity for diluted ThT in the absence of peptide was determined and subtracted from sample intensities. ThT fluorescence intensity was measured for Aβ-amyloid(1-39) alone or mixed with 18-25 or 15-25-K6 after one week incubation at room temperature. Samples were diluted 25-fold just prior to measurement. […] Because 16-25 was not soluble in PBS, the assay could not be repeated in a like manner for that peptide; however, a parallel experiment was conducted by dissolution of 16-25 or 18-25 into 35% ACN/TFA followed by mixing with Aβ(1-39) and dilution into PBS.

Series [10] deals with T1, Aβ(1-39). Kind of series: Circular dichroism spectroscopy, effect of peptide on Aβ(1-39) spectra. The class given is biochemical. The settings on record: Aβ(1-39):peptide 1:2 molar ratio. As for the experimental part:
(§2) β(1-39), 15-25-K6, or a mixture of β(1-39) and 15-25-K6 (1:2 molar ratio) were dissolved in 0.01 M phosphate buffer, pH 7.2. The final concentration was 0.5 mg/ml for each peptide. The solution was passed through a 0.45 μm Millipore (Bedford, Mass.) filter to remove dust and then degassed. Circular dichroism spectra in the far UV (190-240 nm) were obtained using a modified Cary Model 60 spectropolarimeter (On-line Instrument Systems, Bogart, Calif.) and analyzed for secondary structure as described (Shen, C.-L., et al., Biophys. J. 65:2383-2395, 1993).
(§3) Circular dichroism spectra of Aβ(1-39) and 15-25-K6 in phosphate buffer (0.1 M. pH 7.4) were collected and quantitatively analyzed for secondary structure. Aβ(1-39) was 65% β-sheet and 30% random coil (spectra not shown), in line with previous measurements (Shen, C.-L., et al., supra, 1994). The secondary structure of 15-25-K6 was essentially the same (64% Aβ-sheet, 36% random coil, data not shown).
In general terms: Circular dichroism is widely used to follow secondary structure.

The nature of series [11]: Self-aggregation of test peptides alone (sedimentation equilibrium ultracentrifugation, dynamic light scattering, visual observation). The series is classed as physicochemical. Conditions: peptide alone.
Description: as §4
Series [12] has as its target T1, Aβ(1-39). The experiment in a line: Electron microscopy of Aβ(1-39) fibrils. The series is classed as biochemical. Conditions: aged approximately one week. As for the experimental part:
Solutions of Aβ(1-39) alone (0.5 mg/ml) or with 1 mg/ml 15-25-K6 were prepared as described above and aged at room temperature for approximately one week. A drop of the peptide solution was placed on a Pioloform coated 300 mesh electron microscope copper grid. After blotting, a drop of 1% ammonium molybdate was placed on the grid while being held with fine forceps. The grid was blotted on filter paper and allowed to dry before observing the specimen in a JEOL (Peabody, Mass.) 100 CX Electron Microscope at 60 kV. To further examine the aggregates, electron micrographs were taken. FIG. 3A and B are electron micrographs of (A) Aβ(1-39) alone and (B) Aβ(1-39) with 15-25-K6. Magnification is 72,500x.

Series [13] can be described thus: Circular dichroism spectroscopy, secondary structure of peptide alone. The class given is physicochemical. Conditions: phosphate buffer (0.1 M, pH 7.4). As for the experimental part: as §2, §3
For series [14], the target named is Aβ (Homo sapiens, UniProt P05067). Conditions: literature; cited from earlier work.
Chain of Aβ (Homo sapiens, UniProt P05067) (P05067 672-711 limits assumed): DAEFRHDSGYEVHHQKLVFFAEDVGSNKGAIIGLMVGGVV

T1 sequence (P05067 672-710): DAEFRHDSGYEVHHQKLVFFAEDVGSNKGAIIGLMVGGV

In the case of `CC(C)C[C@H](NC(=O)[C@@H](N)CCCCN)C(=O)N[C@H](C(=O)N[C@@H](Cc1ccccc1)C(=O)O)C(C)C` [16-19, KLVF] (H-KLVF-OH), in series [1], the Soluble result is on record as “yes”.

As for `CC(C)C[C@H](NC(=O)[C@@H](N)CCCCN)C(=O)N[C@H](C(=O)N[C@@H](Cc1ccccc1)C(=O)N[C@@H](Cc1ccccc1)C(=O)O)C(C)C` [16-20, KLVFF], the Soluble result in [1] is “yes”.

For `Nc1c(/N=N/c2ccc(-c3ccc(/N=N/c4cc(S(=O)(=O)O)c5ccccc5c4N)cc3)cc2)cc(S(=O)(=O)O)c2ccccc12` [Congo red], the “effect on Aβ aggregation / fibril formation” value in series [2] was “disrupt Aβ aggregation”. In [3], the “effect on Aβ toxicity” value is recorded as “reduce Aβ toxicity”.

With `CCCCCCCCCCCCCCCC[N+]1(C)CCCCC1.[Br-]` [hexadecyl-N-methylpiperidinium bromide], the “effect on Aβ aggregation / fibril formation” value in series [2] is on record as “inhibits Aβ fibril formation”.

Regarding `OC[C@H]1O[C@@H]2O[C@H]3[C@H](O)[C@@H](O)[C@@H](O[C@H]4[C@H](O)[C@@H](O)[C@@H](O[C@H]5[C@H](O)[C@@H](O)[C@@H](O[C@H]6[C@H](O)[C@@H](O)[C@@H](O[C@H]7[C@H](O)[C@@H](O)[C@@H](O[C@H]8[C@H](O)[C@@H](O)[C@@H](O[C@H]1[C@H](O)[C@H]2O)O[C@@H]8CO)O[C@@H]7CO)O[C@@H]6CO)O[C@@H]5CO)O[C@@H]4CO)O[C@@H]3CO` [β-Cyclodextrin], the “effect on Aβ toxicity” value in series [3] is “partially reduces Aβ toxicity”.

With FAEDVG [20-25, FAEDVG], in series [1], the Soluble entry is “yes”.

In the case of FAEDVGKKKKKK [20-25-K6, FAEDVGKKKKKK], in series [1], the “solubility in PBSA” value is “readily soluble” and the Soluble result was “yes”.

For the molecule FFAEDVG [19-25, FFAEDVG], the Soluble entry in series [1] was “yes”.

Take “GQKLVFFAEDVGGaKKKKKK (GQKLVFFAEDVGG[Ahx]KKKKKK) [15-25-K6]”: the “protection against Aβ(1-39) toxicity” value in [4] is listed as “intermediate in protective effect”. Further, the “effect on Aβ aggregate size / growth rate (hydrodynamic radius vs time)” value in series [5] is listed as “dramatic increase”. Also, the “increase in molecular weight of Aβ aggregates” value in series [6] (24 hours after mixing) was 2-2.5 fold. Besides, the “effect on Aβ(1-39) aggregate shape / morphology (Kratky plot)” value in series [6] (24 hours co-incubation) is reported as “greatest effect on the particle shape”. In addition, the “effect on ThT fluorescence of Aβ(25-35)” value in series [7] was “neither a positive nor a negative effect”. Moreover, the “effect on toxicity of Aβ(25-35)” value in series [8] was “no effect”. The “effect on ThT fluorescence intensity of Aβ(1-39)” value in series [9] was “reduced the ThT fluorescence intensity of Aβ(1-39) somewhat”. Further, in series [10], the “effect on circular dichroism spectra of Aβ(1-39)” value is reported as “did not significantly alter”. The “aggregation state by sedimentation equilibrium ultracentrifugation” value in [11] was “monomeric”. Further, the “effect on Aβ(1-39) fibril morphology (electron micrographs)” value in series [12] was “did not prevent fibril formation but did appear to reduce the average length of fibrils, and increase the extent of fibril entanglement”. In series [13], the random coil content amounted to 36% and the β-sheet content was found to be 64%.

Regarding KKLVFFA, the “interaction with Aβ” value in series [14] was “interacts with the homologous sequence in Aβ”.

Turning to KLVFFKKKKKK [16-20-K6, KLVFFKKKKKK], in series [1], the “solubility in PBSA” value is “readily soluble” and the Soluble entry is on record as “yes”.

Turning to “QKLVTTAE [literature octapeptide with substitutions for the two Phe residues at positions 19 and 20]”, in series [2] (10-fold molar excess, electron microscopy), the “effect on Aβ fibril formation” value was “inhibited fibril formation”.

Take VFFAEDVG [18-25, VFFAEDVG]: the Soluble result in series [1] is recorded as “yes”.

Turning to VLFKF [16-20S, VLFKF], the Soluble result in series [1] is reported as “yes”.
